Consider four substances from patent publication US5206223A, “Method for inhibiting heparanase activity” (Yeda Research and Development Co. Ltd., priority 1986, dated 1993).

“Also recorded” adds a separate entry of the source.

One data set relates to adjuvant arthritis. The data set is described as follows: Adjuvant arthritis induced with M. tuberculosis. In kind it is in vivo, Lewis rats. Conditions: for Inhibition of arthritis / Arthritis score (day 60): rat, in vivo; for Arthritis score (day 60): sc.
The test system of a further data set is heparanase. The data set is described as follows: Inhibition of T lymphocyte heparanase activity (degradation of 35S-labeled heparan sulfate of extracellular matrix). Format: biochemical. Conditions: medium of activated T lymphocytes, 35S-labeled extracellular matrix, various concentrations. As to the method:
Heparanase activity was induced into the extracellular medium bathing activated T lymphocytes and tested by incubating the medium with extracellular matrix whose heparan sulfate was labeled with ^35 S as described (Naparstek, Y., Cohen, I. R., Fuks, Z. and I. Vlodavsky. Activated T lymphocytes produce a matrix-degrading heparan sulphate endoglycosidase. Nature 310:241 (1984)). Inhibition of heparanase activity was tested by adding various concentrations of heparin or modified heparins to the reaction mixture and measuring the effect on degradation of the labeled heparin-sulfate as described (Naparstek, Y., Cohen, I. R., Fuks, Z. and I. Vlodavsky.
Activated T lymphocytes produce a matrix-degrading heparan sulphate endoglycosidase, Nature 310:241 (1984)). Totally desulfated heparin and N-desulfated, N-acetylated heparin was prepared as described. (Ayotte, L., A. S. Perlin. NMR spectroscopic observations related to the function of sulfate groups in heparin. Calcium binding vs. biological activity. Carbohydrate Res. 145:267 (1986)).

The subject of the next data set is skin allografts. Nature of the data set: Skin allograft survival (SJL/J skin on (BALB/c×C57BL/6)F1 mice). Conditions: 10 mg/kg daily, saline control 10 days. Format: in vivo. Here is the method: FIG. 1. Treatment with heparin (0.05 mg/kg) prevents rejection of skin allografts. Mice of hybrid strain (BALB/c×C57BL/6)F1 were grafted with skin from allogeneic SJL/J mice. The mice (20 per group) were treated daily with subcutaneous injections of saline (squares) or with heparin ("Leo", 0.05 mg/kg; diamonds) and scored for skin graft survival. Median survival for the control group was 10 days while that for the heparin treated group was 24 days.
FIG. 2. Treatment with N-desulfated, N-acetylated heparin (10 mg/kg) prevents rejection of skin allografts. Mice were grafted as described for FIG. 1 and treated daily with saline (squares) or N-desulfated, N-acetylated heparin (10 mg/kg; diamonds). The median survival of the skin allograft in the control group was 10 days while that in the treated group was 20 days.
The median survival time of the skin grafts on control mice treated with saline was […] while that on mice treated with 0.05 mg/kg daily of heparin was 26 days with maximal survival to 32 days.

For data set [1] the following is noted: rat, in vivo, 10 mg/kg.
Data set [2] concerns experimental autoimmune encephalomyelitis (EAE). Nature of the data set: Experimental autoimmune encephalomyelitis (EAE) produced by anti-BP T lymphocytes. Format: in vivo, Lewis rats. Conditions: 10 mg/kg daily. The text has this:
EAE is an experimental autoimmune disease with some features reminiscent of multiple sclerosis in humans. The disease is caused by T lymphocytes immunized to the basic protein (BP) of the central nervous system myelin. To test the effect of heparins on the ability of T lymphocytes to cause autoimmune disease, we used T lymphocytes sensitized against BP, either as T cell lines (Cohen, I. R. Experimental autoimmune encephalomyelitis: Pathogenesis and prevention. In: Immunoregulatory Processes in Multiple Sclerosis and Experimental Allergic Encephalomyelitis. A. A. Vandenbark and J. C. M. Raus, eds. Elsevier Biomedical Res. Amsterdam. 7:91-125 (1985)) or as populations of lymph node cells from BP immunized rats.
EAE was produced by inoculating Lewis rats with a T cell line of anti-BP T lymphocytes (10^6 cells) with anti-BP primed lymph node cells (10^7 cells) intravenously (Cohen, I. R. Experimental autoimmune encephalomyelitis: Pathogenesis and prevention. In: Immunoregulatory Processes in Multiple Sclerosis and Experimental Allergic Encephalomyelitis. A. A. Vandenbark and J. C. M. Raus, eds. Elsevier Biomedical Res. Amsterdam. 7:91-125 (1985)) One day before inoculation and daily for 10 days, the rats received either saline or the heparins.

The next data set relates to activated T lymphocytes. The data set is described as follows: Traffic of 51Cr-labeled lymphocytes from subcutaneous site and in blood. Format: in vivo. Conditions: rats or mice. From the text:
To test the effect of modified heparin on T lymphocyte traffic, we labelled the lymphocytes with ^51 Cr and measured the uptake of the labeled lymphocytes from a subcutaneous site and their persistence in the blood.
Furthermore, treatment with the modified heparin led to persistence of labeled lymphocytes in the blood for 4-5 days, while the untreated rats or mice cleared the labeled lymphocytes from the blood in 1 day. Thus, treatment with modified heparin inhibited the ability of T lymphocytes to enter the blood vessels, and once in the blood vessels, prevented the T lymphocytes from exiting. This can be attributed to inhibition of the heparanase enzyme activity needed to penetrate the extracellular matrix of the vessel wall.

With N-desulfated heparin, in the data set with adjuvant arthritis, the Inhibition of arthritis result was “no” and the “Arthritis score (day 60)” value is given as 5.
As for N-desulfated, N-acetylated heparin, the “Inhibition of degradation of heparan sulfate by heparanase” value in the data set on heparanase is on record as “yes”. For the same substance, the “Median survival of skin allograft” value with skin allografts was 20 days. The “Anti-coagulant effect (prothrombin time)” value in data set [1] was “no anti-coagulant effect”. In data set [2] (A: T cell line, None 4.2), the “Duration of EAE” value was 1.8 days. The “Day of onset of EAE” value in data set [2] (A: T cell line, None 5.2) was 6.4. In addition, the “% incidence of EAE” value was determined as 50% in data set [2] (A: T cell line, None 100) and 0% in data set [2] (C: primed lymph node cells, None 80). In data set [2] (A: T cell line, scale 1-4, None 2.4), the “Clinical score of EAE” value amounted to 0.8. The “Persistence of labeled lymphocytes in the site of injection into the tail” value in the data set with activated T lymphocytes (0.05 mg/kg, control 1-2 days) was in the range of 5 to 6 days. Also, the “Persistence of labeled lymphocytes in the blood” value in the data set with activated T lymphocytes (untreated cleared in 1 day) was 4 to 5 days. The “Inhibition of adjuvant arthritis (FIG. 4)” value with adjuvant arthritis (0.02 mg per rat (0.1 mg/kg) s.c. once daily from day 9, 0.1 mg/kg) is given as “significant inhibition of arthritis; also recorded: maximum effect”; in the data set on adjuvant arthritis (0.04 mg s.c. once daily from day 9) it was “ineffective”. The “Histologic examination of the joints” value in the data set with adjuvant arthritis (0.1 mg/kg/day from day 21 to 51, control rats severe signs of inflammation) is recorded as “healthy joints”. Besides, in the data set on adjuvant arthritis (0.1 mg/kg/day s.c. from day 21 to 51), the “Remission of established adjuvant arthritis (FIG. 5)” value is on record as “early remission of established adjuvant arthritis”. Besides, the Inhibition of arthritis result with adjuvant arthritis is on record as “yes”. For the same substance, the “Arthritis score (day 60)” value with adjuvant arthritis was found to be 0.
In the case of O-desulfated, N-acetylated heparin, in the data set on adjuvant arthritis, the Inhibition of arthritis entry is “yes” and the “Arthritis score (day 60)” value came out at 0.
Turning to “totally desulfated heparin [Heparin: totally desulfated]”, the “Inhibition of degradation of heparan sulfate by heparanase” value in the data set on heparanase was “no”. Also, in the data set with adjuvant arthritis, the Inhibition of arthritis entry is “no” and the “Arthritis score (day 60)” value turned out to be 5.
